From patent US20250230154A1, “COMPOUND HAVING SHP2 PROTEIN DEGRADING ACTIVITY, AND MEDICAL USES THEREOF” (UBIX THERAPEUTICS, INC., priority 2021, published 2025)

Target: T1, SHP2 protein (Homo sapiens, UniProt Q06124)
T1 sequence (Q06124 1-593): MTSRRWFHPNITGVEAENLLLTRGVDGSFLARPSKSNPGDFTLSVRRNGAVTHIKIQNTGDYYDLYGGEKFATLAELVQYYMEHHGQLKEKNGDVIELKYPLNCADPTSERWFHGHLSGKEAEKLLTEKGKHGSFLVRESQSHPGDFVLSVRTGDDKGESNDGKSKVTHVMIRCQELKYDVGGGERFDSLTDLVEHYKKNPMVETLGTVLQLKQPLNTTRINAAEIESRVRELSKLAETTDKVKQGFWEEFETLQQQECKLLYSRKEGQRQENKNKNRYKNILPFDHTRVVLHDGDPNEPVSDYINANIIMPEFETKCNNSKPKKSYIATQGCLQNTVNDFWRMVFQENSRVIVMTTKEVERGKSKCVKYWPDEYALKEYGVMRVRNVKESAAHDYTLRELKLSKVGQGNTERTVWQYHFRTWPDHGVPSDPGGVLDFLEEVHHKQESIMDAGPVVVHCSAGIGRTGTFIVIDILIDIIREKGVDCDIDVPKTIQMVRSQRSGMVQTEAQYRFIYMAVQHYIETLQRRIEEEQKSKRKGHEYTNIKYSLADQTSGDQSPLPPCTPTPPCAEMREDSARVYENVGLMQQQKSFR
Assay: Measurement of SHP2 protein degradation in MV-4-11 cells (western blotting)
Format: cell-based
Design: endogenous in cells; host or cells: MV-4-11
Conditions: MV-4-11 cells, 24 hours
Procedure: Experimental Example 2: Measurement of SHP2 Protein Degradation in MV-4-11 Cells
MV-4-11 cells were treated with the synthesized Example compound, and the amount of SHP2 protein present in the cells was measured using western blotting detection. The protocol of the experiment conducted using MV-4-11 cells was as follows:
[Culture] MV-4-11 cells resuspended in IMDM MEDIUM (Hyclone, SH30228.01) containing 5% FBS (Hyclone, SV30207.02) and 1% Penicillin-streptomycin (Welgene, LS 202-02) were seeded at a density of 1×10^6/mL/well in a 12-well plate in an amount of 1 ml each.
[Compound treatment] The 12-well plate was treated as follows: Cells were treated with compounds at a final concentration of […] made by serial dilution of 10 mM stock with DMSO in 1/100 increments […]. After 24 hours, cells were harvested. For the negative control group, DMSO diluted 1/100 to the media (3 mL DMSO+297 mL media) was added.
[Harvest] Each well was collected in a 1.5 mL microtube by pipetting with a 1 mL pipette and centrifuged (500 g, 5 min, 4° C.). The supernatant was removed. It was washed with PBS, and then centrifuged again (500 g, 5 min, 4° C.). Thereafter, the supernatant was removed to prepare a pellet.
[Cell Lysis and Sample preparation] Lysis buffer was prepared as follows: […] of RIPA buffer (Biosesang, RC2038-050-00)+0.5 mM PMSF (SIGMA, P7626)+1× Protease/Phosphatase Inhibitor (Cell signaling, 5872S) per well was added and placed on ice for 30 minutes (vortexing at 0 and 30 minutes, respectively). After sonication process (10 seconds pulse, 30 seconds rest, 5 cycles, 70% amplification), centrifugation (15000 g, 15 min, 4° C.) was performed, and then only the supernatant was taken and transferred to a microtube. The sample was diluted ¼ with RIPA buffer in a 96-well plate, and mixed with A:B=50:1 of the BCA Protein Assay Kit (iNtRON, 21071). […] each of the mixture was left at 37° C. for 30 minutes, and cooled for 10 minutes. Then, absorbance was measured at 562 nm with the SYNERGY H1 microplate reader from BioTek. After making a sample by quantifying the protein with the measured value, boiling was performed at 70° C. for 10 minutes. At this time, the sample buffer used was a mixture of NuPAGE or Bolt 4× sample buffer (Invitrogen) and each 10× sample reducing agent according to the gel to be used, and RIPA buffer was used for protein dilution.
[Western blotting detection method] The same amount of sample was loaded on NuPAGE or Bolt Bis-tris 4-12% gradient gel and run (200 V, 35 minutes). It was transferred to 0.2 mm NC membrane with Trans-blot Turbo (BIO-RAD) (1.3 A constant, 25 V limit, 15 minutes). Blocking was performed at room temperature for 1 hour with Skim milk or Intercept Blocking Buffer (LI-COR, 927-60001):0.1% TBST=1:1. Anti-SHPTP2 Mouse (1:500 in 2% BSA/0.2% TBST, size: 70 kDa, Santacruz sc-7384) was incubated overnight at 4° C., and Anti-GAPDH Rabbit (1:2,000 in 2% BSA/0.2% TBST, size: 37 kDa, CST #2118) was incubated at room temperature for 1 hour 30 minutes or 3 hours. It was washed 3 times for 5 minutes each with 0.2% TBST washing buffer. Secondary antibody Anti-Rabbit IgG (1:5,000 in 2% BSA/0.2% TBST, CST), IRDye® 680RD Goat anti-Rabbit IgG Secondary Antibody (1:10,000 in 2% BSA/0.2% TBST, LI-COR 926-68071) were added and incubated for 45 minutes on a rocker at room temperature. It was washed 5 times for 5 minutes each with 0.2% TBST washing buffer and detected with LI-COR's Odyssey. At this time, SHPTP2 was detected using SuperSignal West Pico PLUS Chemiluminescent Substrate, and house-keeping genes were also detected.
In the results of Table 4 below, Compounds 1-7, 13-19, and 21-26 are results in KYSE-520 cells, and the others are results in MV-4-11 cells.

Structure (SMILES) | SHP2 degradation (%) 10 nM | SHP2 degradation (%) 100 nM | SHP2 degradation (%) 1000 nM
Cc1ncsc1-c1ccc(CNC(=O)[C@@H]2C[C@@H](O)CN2C(=O)[C@@H](NC(=O)C2(F)CC2)C(C)(C)C)c(OCCN2CCN(CC(=O)Nc3cccc(Sc4cnc(N5CCC(C)(CN)CC5)cn4)c3Cl)C(=O)C2)c1 [Example 76, (2S,4R)—N-(2-(2-(4-(2-((3-((5-(4-(aminomethyl)-4-methylpiperidin-1-yl)pyrazin-2-yl)thio)-2-chlorophenyl)amino)-2-oxoethyl)-3-oxopiperazin-1-yl)ethoxy)-4-(4-methylthiazol-5-yl)benzyl)-1-((S)-2-(1-fluorocyclopropane-1-carboxamido)-3,3-dimethylbutanoyl)-4-hydroxypyrrolidine-2-carboxamide] | 94.2% | 99.5% | –
Cc1ncsc1-c1ccc(CNC(=O)[C@@H]2C[C@@H](O)CN2C(=O)[C@@H](NC(=O)C2(F)CC2)C(C)(C)C)c(OCCCN2CCN(CC(=O)Nc3cccc(Sc4cnc(N5CCC(C)(CN)CC5)cn4)c3Cl)CC2)c1 [Example 73, (2S,4R)—N-(2-(3-(4-(2-((3-((5-(4-(aminomethyl)-4-methylpiperidin-1-yl)pyrazin-2-yl)thio)-2-chlorophenyl)amino)-2-oxoethyl)piperazin-1-yl)propoxy)-4-(4-methylthiazol-5-yl)benzyl)-1-((S)-2-(1-fluorocyclopropane-1-carboxamido)-3,3-dimethylbutanoyl)-4-hydroxypyrrolidine-2-carboxamide] | 8.2% | 81.2% | –
CC(=O)N[C@H](C(=O)N1C[C@H](O)C[C@H]1C(=O)NCc1ccc(-c2scnc2C)cc1OCCC1CCN(C(=O)CC(=O)Nc2cccc(Sc3cnc(N4CCC(C)(CN)CC4)cn3)c2Cl)CC1)C(C)(C)C [Example 38, (2S,4R)-1-((S)-2-acetamido-3,3-dimethylbutanoyl)-N-(2-(2-(1-(3-((3-((5-(4-(aminomethyl)-4-methylpiperidin-1-yl)pyrazin-2-yl)thio)-2-chlorophenyl)amino)-3-oxopropanoyl)piperidin-4-yl)ethoxy)-4-(4-methylthiazol-5-yl)benzyl)-4-hydroxypyrrolidine-2-carboxamide] | 86% | 93% | 93.5%
Cc1ncsc1-c1ccc(CNC(=O)[C@@H]2C[C@@H](O)CN2C(=O)[C@@H](NC(=O)C2(F)CC2)C(C)(C)C)c(OC2CC3(CCN(c4cnc(C(=O)Nc5cccc(Sc6cnc(N7CCC(C)(CN)CC7)cn6)c5Cl)nc4)CC3)C2)c1 [Example 87, N-(3-((5-(4-(aminomethyl)-4-methylpiperidin-1-yl)pyrazin-2-yl)thio)-2-chlorophenyl)-5-(2-(2-(((2S,4R)-1-((S)-2-(1-fluorocyclopropane-1-carboxamido)-3,3-dimethylbutanoyl)-4-hydroxypyrrolidine-2-carboxamido)methyl)-5-(4-methylthiazol-5-yl)phenoxy)-7-azaspiro[3.5]nonan-7-yl)pyrimidine-2-carboxamide] | 9.1% | 45.5% | –
Cc1ncsc1-c1ccc(CNC(=O)[C@@H]2C[C@@H](O)CN2C(=O)[C@@H](NC(=O)C2(F)CC2)C(C)(C)C)c(OCCN2CCN(c3ccc(C(=O)Nc4cccc(Sc5cnc(N6CCC(C)(CN)CC6)cn5)c4Cl)nc3)CC2)c1 [Example 81, N-(3-((5-(4-(aminomethyl)-4-methylpiperidin-1-yl)pyrazin-2-yl)thio)-2-chlorophenyl)-5-(4-(2-(2-(((2S,4R)-1-((S)-2-(1-fluorocyclopropane-1-carboxamido)-3,3-dimethylbutanoyl)-4-hydroxypyrrolidine-2-carboxamido)methyl)-5-(4-methylthiazol-5-yl)phenoxy)ethyl)piperazin-1-yl)picolinamide] | 22.7% | 93.2% | –
Cc1ncsc1-c1ccc(CNC(=O)[C@@H]2C[C@@H](O)CN2C(=O)[C@@H](NC(=O)C2(F)CC2)C(C)(C)C)c(OCCN2CCN(C(=O)CC(=O)Nc3cccc(Sc4cnc(N5CCC(C)(CN)CC5)cn4)c3Cl)C[C@@H]2C(=O)O)c1 [Example 70, (R)-4-(3-((3-((5-(4-(aminomethyl)-4-methylpiperidin-1-yl)pyrazin-2-yl)thio)-2-chlorophenyl)amino)-3-oxopropanoyl)-1-(2-(2-(((2S,4R)-1-((S)-2-(1-fluorocyclopropane-1-carboxamido)-3,3-dimethylbutanoyl)-4-hydroxypyrrolidine-2-carboxamido)methyl)-5-(4-methylthiazol-5-yl)phenoxy)ethyl)piperazine-2-carboxylic Acid] | 14.4% | 59.2% | –
Cc1ncsc1-c1ccc(CNC(=O)[C@@H]2C[C@@H](O)CN2C(=O)[C@@H](NC(=O)C2(F)CC2)C(C)(C)C)c(OCCC2CCN(C(=O)CCC(=O)Nc3cccc(Sc4cnc(N5CCC(C)(CN)CC5)cn4)c3Cl)CC2)c1 [Example 45, (2S,4R)—N-(2-(2-(1-(4-((3-((5-(4-(aminomethyl)-4-methylpiperidin-1-yl)pyrazin-2-yl)thio)-2-chlorophenyl)amino)-4-oxobutanoyl)piperidin-4-yl)ethoxy)-4-(4-methylthiazol-5-yl)benzyl)-1-((S)-2-(1-fluorocyclopropane-1-carboxamido)-3,3-dimethylbutanoyl)-4-hydroxypyrrolidine-2-carboxamide] | 68.0% | 91.0% | 93.0%
CC(=O)N[C@H](C(=O)N1C[C@H](O)C[C@H]1C(=O)NCc1ccc(-c2scnc2C)cc1OCC1CCN(C(=O)CC(=O)Nc2cccc(Sc3cnc(N4CCC(C)(CN)CC4)cn3)c2Cl)CC1)C(C)(C)C [Example 33, (2S,4R)-1-((S)-2-acetamido-3,3-dimethylbutanoyl)-N-(2-((1-(3-((3-((5-(4-(aminomethyl)-4-methylpiperidin-1-yl)pyrazin-2-yl)thio)-2-chlorophenyl)amino)-3-oxopropanoyl)piperidin-4-yl)methoxy)-4-(4-methylthiazol-5-yl)benzyl)-4-hydroxypyrrolidine-2-carboxamide] | 90% | 96.5% | –
